Consider 6 compounds from patent publication US4918174A, “Tiacumicin compounds” (Abbott Laboratories, priority 1986, dated 1990).

Series [1] concerns Staphylococcus epidermidis 3519. The series is described as follows: Minimal Inhibitory Concentrations against common test organisms. It counts as cell-based.
A further series in a line: solubility. Type of series: physicochemical.
Series [2] deals with Streptococcus pyogenes 930. The series is described as follows: Minimal Inhibitory Concentrations against common test organisms. It counts as cell-based.
For a further series, the system named is Micrococcus luteus 4698. The series is described as above. It counts as cell-based.
For a further series, the system named is Micrococcus luteus 9341. Described as above. Type of series: cell-based.
In series [3] the test system is Staphylococcus aureus ATCC 6538. The series is described as above. It counts as cell-based.
Series [4] has as its system Streptococcus faecium ATCC 8043. Described as above. Type of series: cell-based. To be noted: Enterococcus faecium, ATCC8043.
Series [5] has as its system Pseudomonas aeruginosa A-5007. The description is as above. The conditions noted are these: A5007. It counts as cell-based.
The next series has as its system Gram-positive bacteria. Put plainly: antibiotic activity against Gram-positive bacteria in vitro. The conditions noted are these: including strains resistant to currently used therapeutic antibiotics. It counts as cell-based.
Series [6] deals with Candida albicans ATCC 10231. The series is described as follows: Minimal Inhibitory Concentrations against common test organisms. Type of series: cell-based. To be noted: ATCC10231.
Another series concerns Bacteroides fragilis 784. The description is as above. It counts as cell-based.
In the next series the test system is Esherichia coli Juhl. The description is as above. It counts as cell-based.
The subject of series [7] is Propionibacterium acnes 132. Described as above. It counts as cell-based. To be noted: Cutibacterium acnes.
[8] abbreviates: ATCC6538, Staphylococcus aureus ATCC 6538, read-out: Minimal Inhibitory Concentrations.

Molecules are shown by their SMILES. Converted amounts (≈) assume the structure as drawn. Like-named read-outs stand apart in the source and are kept apart here.

As to `CCC1CC=C(C)C=C(C)C(OC2OC(C)(C)C(OC(C)=O)C(O)C2O)C(CC)C=C(C)C(O)CC=CC=C(C)C(=O)O1` (centres unmarked) [Tiacumicin A], in series [1], the MIC turned out to be 100 µg/mL (≈ 165 µM). Also, the solubility in acetone result in “solubility” (acetone) is “sparingly soluble”. In the series “solubility”, the solubility in acetonitrile entry is “sparingly soluble”, the solubility in benzene result was “readily soluble”, the solubility in chloroform result is “readily soluble” and the solubility in methanol entry is “readily soluble”. Moreover, the solubility in water result in the series “solubility” is on record as “insoluble”. In addition, the MIC in series [2] came out at 100 µg/mL (≈ 165 µM). Further, in the series with Micrococcus luteus 4698, the MIC is 0.39 µg/mL (≈ 0.645 µM). In the series with Micrococcus luteus 9341, this compound gave an MIC of 0.1 µg/mL (≈ 0.165 µM). The MIC in series [3] (setting [8]) amounted to 100 µg/mL (≈ 165 µM).

`CCc1c(Cl)c(O)c(Cl)c(O)c1C(=O)OC1C(C)OC(OCC2=CC=CCC(O)C(C)=CC(CC)C(OC3OC(C)(C)C(OC(=O)C(C)C)C(O)C3O)C(C)=CC(C)=CCC(C(C)O)OC2=O)C(OC)C1O` (centres unmarked) [Tiacumicin B]: the MIC was 12.5 µg/mL (≈ 11.8 µM) in series [1]; 12.5 µg/mL (≈ 11.8 µM) in series [4]; > 100 µg/mL in series [5]; > 100 µg/mL in [6]; > 100 µg/mL with Bacteroides fragilis 784; 12.5 µg/mL (≈ 11.8 µM) in series [2]. The MIC with Micrococcus luteus 9341 is 0.1 µg/mL (≈ 0.0945 µM); in the series on Esherichia coli Juhl, > 100 µg/mL; in [7], 6.25 µg/mL (≈ 5.91 µM); in series [3] (Staphylococcus aureus, ATCC6538, read-out: Minimal Inhibitory Concentrations), 12.5 µg/mL (≈ 11.8 µM). Also, in “solubility”, the solubility in acetonitrile result is on record as “readily soluble”. The solubility in benzene result in “solubility” is given as “sparingly soluble”. Besides, the solubility in chloroform result in the series “solubility” is reported as “sparingly soluble”. The solubility in ether result in “solubility” was “sparingly soluble”. In addition, the solubility in hexane entry in “solubility” is “insoluble”. In “solubility”, the solubility in methanol entry is “readily soluble”. Also, the solubility in water entry in the series “solubility” is listed as “insoluble”. Further, in the series on Gram-positive bacteria, the “antibiotic activity against a number of Gram-positive bacteria” value is recorded as “possessed antibiotic activity”.

As to `CCc1c(Cl)c(O)c(Cl)c(O)c1C(=O)OC1C(C)OC(OCC2=CC=CCC(O)C(C)=CC(CC)C(OC3OC(C)(C)C(O)C(O)C3OC(=O)C(C)C)C(C)=CC(C)=CCC(C(C)O)OC2=O)C(OC)C1O` (centres unmarked) [Tiacumicin C], the MIC in series [1] was 25 µg/mL (≈ 23.6 µM); in [4], 100 µg/mL (≈ 94.5 µM); in series [5] it was > 100 µg/mL; in series [6], > 100 µg/mL; in [2] it was 25 µg/mL (≈ 23.6 µM); against Micrococcus luteus 9341, ≤ 0.39 µg/mL. In addition, the figures for the MIC (with Esherichia coli Juhl; in series [3] (setting [8])) were > 100 µg/mL and 50 µg/mL (≈ 47.3 µM), respectively. In addition, in the series “solubility”, the solubility in acetonitrile result is listed as “readily soluble”. Moreover, the solubility in benzene entry in “solubility” was “sparingly soluble”. For the same compound, in “solubility”, the solubility in chloroform entry is listed as “sparingly soluble”. For the same compound, the solubility in ether entry in the series “solubility” is “sparingly soluble”. The solubility in hexane result in “solubility” is on record as “insoluble”. For the same compound, the solubility in methanol entry in the series “solubility” was “readily soluble”. In the series “solubility”, the solubility in water entry is “insoluble”. In addition, the “antibiotic activity against a number of Gram-positive bacteria” value in the series on Gram-positive bacteria is “possessed antibiotic activity”.

For `CCc1c(Cl)c(O)c(Cl)c(O)c1C(=O)OC1C(O)C(C)OC(OCC2=CC=CCC(O)C(C)=CC(CC)C(OC3OC(C)(C)C(O)C(O)C3OC(=O)C(C)C)C(C)=CC(C)=CCC(C(C)O)OC2=O)C1OC` (centres unmarked) [Tiacumicin D], the MIC in [1] is > 25 µg/mL. In addition, the MIC in [4] is > 25 µg/mL. Also, in the series “solubility”, the solubility in acetonitrile result was “readily soluble”, the solubility in benzene entry is “sparingly soluble”, the solubility in chloroform entry is given as “sparingly soluble” and the solubility in ether result is “sparingly soluble”. Further, in “solubility”, the solubility in hexane result is reported as “insoluble”, the solubility in methanol entry is reported as “readily soluble” and the solubility in water result was “insoluble”. In series [5], the MIC is > 25 µg/mL. Further, the MIC in series [2] is > 25 µg/mL. This compound also returned an MIC with Micrococcus luteus 9341 of 0.2 µg/mL (≈ 0.189 µM). Moreover, the MIC against Esherichia coli Juhl is > 25 µg/mL. Further, the MIC in [3] (setting [8]) was > 25 µg/mL.

In series [1], `CCC(=O)OC1C(OC2C(C)=CC(C)=CCC(C(C)O)OC(=O)C(COC3OC(C)C(OC(=O)c4c(O)c(Cl)c(O)c(Cl)c4CC)C(O)C3OC)=CC=CCC(O)C(C)=CC2CC)OC(C)(C)C(O)C1O` (centres unmarked) [Tiacumicin E] had an MIC of 12.5 µg/mL (≈ 12 µM). In addition, the MIC in series [4] came out at 12.5 µg/mL (≈ 12 µM). In addition, in “solubility”, the solubility in acetonitrile entry is recorded as “readily soluble”, the solubility in benzene entry is “sparingly soluble”, the solubility in chloroform result is “sparingly soluble” and the solubility in ether result is listed as “sparingly soluble”. Also, in “solubility”, the solubility in hexane entry is “insoluble”, the solubility in methanol result was “readily soluble” and the solubility in water result is “insoluble”. Also, the MIC in [5] is > 100 µg/mL. This compound yielded an MIC in series [2] of 50 µg/mL (≈ 47.9 µM). Besides, the MIC with Esherichia coli Juhl is > 100 µg/mL. Moreover, the MIC in series [3] (setting [8]) was determined as 2.5 µg/mL (≈ 2.39 µM).

Consider `CCc1c(Cl)c(O)c(Cl)c(O)c1C(=O)OC1C(C)OC(OCC2=CC=CCC(O)C(C)=CC(CC)C(OC3OC(C)(C)C(O)C(OC(=O)C(C)C)C3O)C(C)=CC(C)=CCC(C(C)O)OC2=O)C(OC)C1O` (centres unmarked) [Tiacumicin F], for which, in series [1], the MIC worked out at 12.5 µg/mL (≈ 11.8 µM). In series [4], this compound came in with an MIC of 6.2 µg/mL (≈ 5.86 µM). In “solubility”, the solubility in acetonitrile entry was “readily soluble”, the solubility in benzene result is “sparingly soluble”, the solubility in chloroform result is “sparingly soluble” and the solubility in ether result was “sparingly soluble”. Moreover, in the series “solubility”, the solubility in hexane result is given as “insoluble”, the solubility in methanol result is “readily soluble” and the solubility in water entry is reported as “insoluble”. Moreover, the MIC in series [5] is > 100 µg/mL. This compound gave an MIC in series [2] of 12.5 µg/mL (≈ 11.8 µM). Also, in the series with Micrococcus luteus 9341, the MIC worked out at 6.2 µg/mL (≈ 5.86 µM). In the series with Esherichia coli Juhl, the MIC is > 100 µg/mL. Moreover, the MIC in [3] (setting [8]) is 12.5 µg/mL (≈ 11.8 µM).
